Laboratory results as given in ChEMBL document CHEMBL1201862, “PubChem BioAssay data set” (2004).
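1) Cells in 96-well plates. 2) Compound, 48 h, 5 concentrations. 3) Linear interpolation between surrounding doses. 4) Unreached endpoint = highest concentration. Here, GI50 denotes the concentration required for 50% inhibition of growth.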 The source made the active and inactive calls. Rule as the data show it: active = GI50 up to about 1.1 µM and inactive = higher.

How the values were obtained:
Test in all cases: inhibition of tumour cell growth, NCI panel, 48 h
DLD-1 = test system: DLD-1
EKVX = test system: EKVX
HCT-116 = test system: HCT-116
HOP-92 = test system: HOP-92
HT-29 = test system: HT-29
KM12 = test system: KM12
LOX IMVI = test system: LOX IMVI
M14 = test system: M14
NCI-H522 = test system: NCI-H522
OVCAR-5 = test system: OVCAR-5
OVCAR-8 = test system: OVCAR-8
RPMI-8226 = test system: RPMI-8226
SF-268 = test system: SF-268
SF-295 = test system: SF-295
SN12C = test system: SN12C
SNB-19 = test system: SNB-19
SW-620 = test system: SW-620
U-251 = test system: U-251
UACC-257 = test system: UACC-257
UACC-62 = test system: UACC-62

Measured: GI50

COC(=O)C(=O)C(C(C)=O)C(=O)NCc1ccccc1 (centres undefined)
inactive: DLD-1 > 100 µM | EKVX > 100 µM | HCT-116 > 100 µM | HOP-92 > 100 µM | HT-29 > 100 µM | KM12 > 100 µM | LOX IMVI 50.1 µM | M14 > 100 µM | NCI-H522 > 100 µM | OVCAR-5 > 100 µM | OVCAR-8 > 100 µM | RPMI-8226 > 100 µM | SF-268 > 100 µM | SF-295 > 100 µM | SN12C > 100 µM | SNB-19 > 100 µM | SW-620 5.06 µM | U-251 82.2 µM | UACC-257 > 100 µM | UACC-62 > 100 µM

CC1(c2ccc(F)cc2)C2C(=O)NC(=O)C1C(=O)NC2=O (centres undefined)
inactive: DLD-1 > 100 µM | EKVX > 100 µM | HOP-92 > 100 µM | HT-29 > 100 µM | KM12 > 100 µM | LOX IMVI > 100 µM | M14 > 100 µM | NCI-H522 > 100 µM | OVCAR-5 > 100 µM | OVCAR-8 > 100 µM | RPMI-8226 > 100 µM | SF-268 > 100 µM | SF-295 > 100 µM | SN12C > 100 µM | SNB-19 > 100 µM | SW-620 > 100 µM | UACC-257 > 100 µM | UACC-62 > 100 µM

Cc1cc(N(CCC#N)CCC#N)ccc1/C=C1N=C(/C=C/c2ccccc2)N(c2ccc(S(N)(=O)=O)cc2)C\1=O
inactive: DLD-1 > 100 µM | HCT-116 > 100 µM | HOP-92 > 100 µM | HT-29 > 100 µM | KM12 > 100 µM | LOX IMVI > 100 µM | M14 > 100 µM | NCI-H522 > 100 µM | OVCAR-5 > 100 µM | OVCAR-8 > 100 µM | RPMI-8226 34.3 µM | SF-268 > 100 µM | SF-295 > 100 µM | SN12C > 100 µM | SNB-19 > 100 µM | SW-620 > 100 µM | U-251 > 100 µM | UACC-257 > 100 µM | UACC-62 > 100 µM

O=C(Cc1ccccc1)N/N=C(\C1=Nc2ccc([N+](=O)[O-])cc2NC1O)C(O)c1ccc([N+](=O)[O-])cc1 (centres undefined)
inactive: DLD-1 > 100 µM | EKVX > 100 µM | HCT-116 > 100 µM | HOP-92 > 100 µM | HT-29 > 100 µM | LOX IMVI 25.8 µM | M14 30.8 µM | NCI-H522 7.89 µM | OVCAR-5 > 100 µM | OVCAR-8 > 100 µM | RPMI-8226 44.4 µM | SF-268 > 100 µM | SF-295 53.1 µM | SN12C > 100 µM | SNB-19 > 100 µM | SW-620 80 µM | U-251 > 100 µM | UACC-257 > 100 µM | UACC-62 54 µM

Cc1ccc(C(=O)N(C(C)C)C(C)C)cc1/N=N/N(C)C
inactive: DLD-1 77.4 µM | EKVX > 100 µM | HCT-116 > 75.9 µM | HOP-92 > 64.6 µM | HT-29 74.1 µM | KM12 45.2 µM | LOX IMVI > 31.6 µM | M14 > 100 µM | NCI-H522 18.2 µM | OVCAR-5 > 100 µM | OVCAR-8 > 100 µM | RPMI-8226 33 µM | SF-268 > 51.6 µM | SF-295 > 86.9 µM | SN12C > 100 µM | SNB-19 > 100 µM | SW-620 > 92.3 µM | U-251 > 80 µM | UACC-257 57.4 µM | UACC-62 > 80.5 µM

CC1=NN(c2ccccc2)C(=O)C1=C1SCCS1
inactive: DLD-1 32.6 µM | EKVX 47.5 µM | HCT-116 > 48 µM | HOP-92 37 µM | HT-29 > 74.5 µM | KM12 > 88.9 µM | LOX IMVI 42.6 µM | M14 > 79.4 µM | NCI-H522 43 µM | OVCAR-5 > 100 µM | OVCAR-8 > 77.6 µM | RPMI-8226 > 25.8 µM | SF-268 > 94.6 µM | SF-295 > 71.8 µM | SN12C > 83 µM | SNB-19 > 86.7 µM | SW-620 > 38.3 µM | U-251 > 53.2 µM | UACC-257 > 74.6 µM | UACC-62 > 62.2 µM

Cc1c(C(=O)/C=C/c2ccco2)[n+]([O-])c2ccccc2[n+]1[O-]
inactive: DLD-1 > 100 µM | EKVX > 100 µM | HCT-116 > 100 µM | HOP-92 45.4 µM | HT-29 > 100 µM | KM12 > 100 µM | LOX IMVI > 100 µM | M14 > 100 µM | NCI-H522 58.9 µM | OVCAR-5 > 100 µM | OVCAR-8 > 100 µM | RPMI-8226 41.8 µM | SF-268 > 100 µM | SF-295 > 100 µM | SN12C > 100 µM | SNB-19 > 100 µM | SW-620 > 100 µM | UACC-257 > 100 µM | UACC-62 > 100 µM

Oc1cc(-c2ccccn2)nc2cccc(F)c12
inactive: DLD-1 > 100 µM | EKVX > 100 µM | HOP-92 > 100 µM | HT-29 > 100 µM | KM12 > 100 µM | LOX IMVI 89.9 µM | M14 > 100 µM | NCI-H522 > 100 µM | OVCAR-5 > 100 µM | OVCAR-8 > 100 µM | RPMI-8226 > 100 µM | SF-295 > 100 µM | SN12C > 100 µM | SNB-19 > 100 µM | SW-620 > 100 µM | UACC-257 > 100 µM | UACC-62 95.3 µM

COc1ccc2nc(-c3ccc(OCc4ccccc4)cc3)ccc2c1
inactive: DLD-1 > 100 µM | EKVX > 100 µM | HCT-116 > 100 µM | HOP-92 > 100 µM | HT-29 > 100 µM | KM12 > 100 µM | LOX IMVI > 100 µM | M14 > 100 µM | NCI-H522 > 100 µM | OVCAR-5 > 100 µM | OVCAR-8 > 100 µM | RPMI-8226 > 100 µM | SF-268 > 100 µM | SF-295 > 100 µM | SN12C > 100 µM | SNB-19 > 100 µM | SW-620 > 100 µM | UACC-257 > 100 µM | UACC-62 > 100 µM

O=C(O)CNS(=O)(=O)c1ccc(NCc2ccccc2)cc1
inactive: DLD-1 > 100 µM | EKVX > 100 µM | HCT-116 > 100 µM | HOP-92 > 100 µM | HT-29 > 100 µM | LOX IMVI > 100 µM | M14 > 100 µM | NCI-H522 > 100 µM | OVCAR-5 > 100 µM | OVCAR-8 > 100 µM | RPMI-8226 > 100 µM | SF-268 > 100 µM | SN12C > 100 µM | SNB-19 > 100 µM | SW-620 > 100 µM | U-251 > 100 µM | UACC-257 > 100 µM | UACC-62 > 100 µM
